| Structure (SMILES) | glass transition temperature |
| --- | --- |
| */C=C/CC(C*)c1ccccc1 (repeat unit) | 14.00 °C |
| */N=N/c1ccc(NC(=O)CCC(=O)Nc2ccc(*)cc2)cc1 (repeat unit) | 220.00 °C |
| *C(=O)CCC1(CCC(=O)N2CCN(*)CC2)c2ccccc2-c2ccccc21 (repeat unit) | 145.00 °C |
| *C(=O)NCC(C)(C)CNC(=O)c1ncn(C)c1* (repeat unit) | 152.00 °C |
| *C(=O)NCCCCCCNC(=O)c1ncn(C)c1* (repeat unit) | 86.00 °C |
| *C(=O)c1ccc2c(c1)C(=O)N(C1CCC(CC3CCC(N4C(=O)c5ccc(*)cc5C4=O)C(C)C3)CC1C)C2=O (repeat unit) | 240.00 °C |
| *C(=O)c1cccc(C(=O)N2CCN(*)CC2)c1 (repeat unit) | 214.50 °C |
| *C(=O)c1ccccc1-c1ccccc1C(=O)N1CCN(*)CC1 (repeat unit) | 193.00 °C |
| *C/C=C/CS(*)(=O)=O (repeat unit) | 86.00 °C |
| *C/C=C/C[Si](*)(C)CCCOc1ccc2ccccc2c1 (repeat unit) | -1.00 °C |
| *C1CCC(CC2CCC(N3C(=O)C4C5C=CC(C6C(=O)N(*)C(=O)C56)C4C3=O)C(C)C2)CC1C (repeat unit) | 241.00 °C |
| *CC(*)c1ccc(C(=O)OCCN(C)C)cc1 (repeat unit) | 91.00 °C |
| *CC(*)c1ccc(C(C)(O)CC)cc1 (repeat unit) | 190.00 °C |
| *CC(*)c1ccc(C(C)(O)CCCCC)cc1 (repeat unit) | 100.00 °C |
| *CC(*)c1ccc(C(F)(F)C(F)(F)C(F)(F)C(F)(F)C(F)(F)C(F)(F)C(F)(F)F)cc1 (repeat unit) | 42.00 °C |
| *CC(*)c1ccc(C(O)CCN2CCOCC2)cc1 (repeat unit) | 50.00 °C |
| *CC(*)c1ccc([CH]([Sn]([CH3])([CH3])[CH3])[Sn]([CH3])([CH3])[CH3])cc1 (repeat unit) | 140.00 °C |
| *CC(*)c1ccc(CCC(F)(F)C(F)(F)C(F)(F)C(F)(F)F)cc1 (repeat unit) | 23.00 °C |
| *CC(*)c1ccc(CCCCCCCCCCCCCC)cc1 (repeat unit) | -36.00 °C |
| *CC(*)c1ccc(CCCCCCCCCCCCCCCC)cc1 (repeat unit) | 4.50 °C |
| *CC(*)c1ccc(COC(C)CC)cc1 (repeat unit) | 40.00 °C |
| *CC(*)c1ccc(COCCC(F)(F)C(F)(F)C(F)(F)C(F)(F)C(F)(F)C(F)(F)C(F)(F)C(F)(F)F)cc1 (repeat unit) | 55.00 °C |

| Structure (SMILES) | glass transition temperature |
| --- | --- |
| *CC(*)c1ccc(COCCCCO)cc1 (repeat unit) | 20.00 °C |
| *CC(*)c1ccc(Cl)c(Cl)c1 (repeat unit) | 128.00 °C |
| *CC(*)c1ccc(Cn2c3ccccc3c3ccccc32)cc1 (repeat unit) | 166.00 °C |
| *CC(*)c1ccc(N(c2ccccc2)c2ccccc2)cc1 (repeat unit) | 123.50 °C |
| *CC(*)c1ccc(OC(C)=O)c(OC)c1 (repeat unit) | 115.00 °C |
| *CC(*)c1ccc(OCCC(C)C)cc1 (repeat unit) | 57.00 °C |
| *CC(*)c1ccc(OP2(OCCOCCOCCOC)=NP(OCCOCCOCCOC)(OCCOCCOCCOC)=NP(OCCOCCOCCOC)(OCCOCCOCCOC)=N2)cc1 (repeat unit) | -46.00 °C |
| *CC(*)c1ccc([Si](C)(C)O)cc1 (repeat unit) | 147.00 °C |
| *CC(*)c1ccc([Si](C)(C)O[Si](C)(C)C)cc1 (repeat unit) | 35.50 °C |
| *CC(*)c1ccc([Si](O[Si](C)(C)C)(O[Si](C)(C)C)O[Si](C)(C)C)cc1 (repeat unit) | 114.00 °C |
| *CC(*)c1cccc(NC(C)=O)c1 (repeat unit) | 163.00 °C |
| *CC(*)c1ccccc1Br (repeat unit) | 149.00 °C |
| *CC(*)c1ccccc1C (repeat unit) | 131.00 °C |
| *CC(*)c1ccccc1C(=O)NC (repeat unit) | 189.00 °C |
| *CC(*)c1ccccc1C(=O)OCCCCC (repeat unit) | 92.00 °C |
| *CC(*)c1ccccc1C(F)(F)F (repeat unit) | 165.00 °C |
| *CC(*)c1ccccc1COC (repeat unit) | 89.00 °C |
| *CC(*)c1ccccc1COCCC (repeat unit) | 97.00 °C |
| *CC(*)c1ccccc1COCCCCCCCC (repeat unit) | 13.00 °C |
| *CC(*)c1ccccc1F (repeat unit) | 160.50 °C |
| *CC(*)c1ccccc1O (repeat unit) | 172.00 °C |
| *CC(*)c1nnn[nH]1 (repeat unit) | 72.00 °C |

| Structure (SMILES) | glass transition temperature |
| --- | --- |
| *CC(*)n1c2ccccc2c2c3ccccc3ccc21 (repeat unit) | 291.50 °C |
| *CC(*)n1ccc2ccccc21 (repeat unit) | 19.00 °C |
| *CC(=O)NCCCCCCNC(=O)CC1COC(*)CO1 (repeat unit) | 73.00 °C |
| *CC(C)(C)C1CC=C(*)CC1 (repeat unit) | 77.00 °C |
| *CC(CCCCCCCCCCCCCCCC)C1C(=O)N(CCCCNC(=O)C(F)(F)C(F)(F)C(F)(F)C(F)(F)C(F)(F)C(F)(F)C(F)(F)F)C(=O)C1* (repeat unit) | 63.00 °C |
| *CC(OC)C1C(=O)N(c2ccc(N(C)C)cc2)C(=O)C1* (repeat unit) | 221.00 °C |
| *CC(OCCCC)C1(C)C(=O)OC(=O)C1(*)C (repeat unit) | 197.00 °C |
| *CC(OCCCC)C1C(=O)OC(=O)C1* (repeat unit) | 118.00 °C |
| *CC(c1ccccc1)C1C(=O)N(C)C(=O)C1* (repeat unit) | 205.00 °C |
| *CC(c1ccccc1)C1C(=O)N(CCCCCCCCCCCC)C(=O)C1* (repeat unit) | 70.00 °C |
| *CC(c1ccccc1)C1C(=O)N(CCN(CC)c2ccc(/N=N/c3ccc([N+](=O)[O-])cc3)cc2)C(=O)C1* (repeat unit) | 172.00 °C |
| *CC(c1ccccc1)C1C(=O)N(c2ccc(NC(=O)OCC3CCCN3c3ccc([N+](=O)[O-])cc3)cc2)C(=O)C1* (repeat unit) | 208.00 °C |
| *CC1(C)CC(*)(C)C(=O)OC1=O (repeat unit) | 144.00 °C |
| *CC1CC(*)C(=O)OC1=O (repeat unit) | 140.00 °C |
| *CC1CC(*)C(OC(=O)CCCCCCCCCCOc2ccc(-c3ccc(C#N)cc3)cc2)C1 (repeat unit) | 30.50 °C |
| *CC1CCCC(Cn2c(=O)c3cc4c(=O)n(*)c(=O)c4cc3c2=O)C1 (repeat unit) | 263.00 °C |
| *CCC(C(=O)OC)C(*)C(=O)OC (repeat unit) | 31.20 °C |
| *CCC(C)C(*)C (repeat unit) | -26.00 °C |
| *CCC1C(=O)N(C)C(=O)C1* (repeat unit) | 141.20 °C |
| *CCC1C(=O)N(CC)C(=O)C1* (repeat unit) | 109.20 °C |
| *CCC1C(=O)N(CCCCCCCCCCCCCC)C(=O)C1* (repeat unit) | 62.40 °C |
| *CCC1CC(*)C2C3CC(C12)C(C)(C(=O)OC)C3 (repeat unit) | 146.00 °C |

| Structure (SMILES) | glass transition temperature |
| --- | --- |
| *CCC1CC(*)C2C3CCC(C3)C12 (repeat unit) | 164.00 °C |
| *CCC1CC2C(CC(*)C2OC(=O)CCCCCCCCCCOc2ccc(-c3ccc(C#N)cc3)cc2)C1OC(=O)CCCCCCCCCCOc1ccc(-c2ccc(C#N)cc2)cc1 (repeat unit) | 23.50 °C |
| *CCCC1(CCCNC(=O)CCC2(CCC(=O)N*)c3ccccc3-c3ccccc32)c2ccccc2-c2ccccc21 (repeat unit) | 165.00 °C |
| *CCCCCCCCCNC(=O)C(OC)C(OC)C(=O)N* (repeat unit) | 84.00 °C |
| *CCCCCCNC(=O)CCCC(=O)O* (repeat unit) | -18.00 °C |
| *CCCCCCNC(=O)CCP(C)(=O)CCC(=O)N* (repeat unit) | 57.50 °C |
| *CCCCOC(=O)CCC(=O)O* (repeat unit) | -32.00 °C |
| *CCCCOC(=O)CCCC(=O)O* (repeat unit) | -36.50 °C |
| *CCN(CCOC(=O)CCC#CC#CCCC(=O)O*)c1ccc([N+](=O)[O-])cc1 (repeat unit) | 30.00 °C |
| *Cc1cccc(CNC(=O)c2cc(C(=O)N*)cc(C(C)(C)C)c2)c1 (repeat unit) | 192.00 °C |
| *OC(=O)CCC(=O)OC1COC2C(*)COC12 (repeat unit) | 77.00 °C |
| *OC(C)CCC(C)OC(=O)CCCCCCCCC(*)=O (repeat unit) | -66.00 °C |
| *O[Si](C)(C)CCC/N=C/c1cc(Cc2ccc(O)c(/C=N/CCC[Si](*)(C)C)c2)ccc1O (repeat unit) | -51.62 °C |
| *O[Si](C)(C)CCCC(=O)Oc1ccc(/C=N/c2ccc(/N=C/c3ccc(OC(=O)CCC[Si](*)(C)C)cc3)cc2)cc1 (repeat unit) | 60.00 °C |
| *O[Si](C)(C)O[Si](C)(C)O[Si](C)(C)OC(C)CCC(*)C (repeat unit) | -90.00 °C |
| *O[Si](C)(C)O[Si](C)(C)O[Si](C)(C)O[Si](C)(C)OC(C)CCC(*)C (repeat unit) | -96.00 °C |
| *O[Si](C)(C)O[Si](C)(C)O[Si](C)(C)O[Si](C)(C)O[Si](C)(C)OC(C)CCC(*)C (repeat unit) | -106.00 °C |
| *O[Si](C)(CCC(F)(F)F)CCC(F)(F)C(F)(F)C(F)(F)C(F)(F)C(F)(F)C(F)(F)CC[Si](*)(C)CCC(F)(F)F (repeat unit) | -24.00 °C |
| *c1ccc2c(c1)C(=O)N(C1CCC(CC3CCC(N4C(=O)c5ccc(C(*)(C(F)(F)F)C(F)(F)F)cc5C4=O)C(C)C3)CC1C)C2=O (repeat unit) | 225.00 °C |
